In publication PMC3382171 (PLoS ONE, 2012):

How the values were obtained:
Assay in all cases: biochemical
Design in all cases: Invitrogen SelectScreen kinase panel, percent inhibition at 1 uM, ATP at Km
Settings in all cases: read-out: Invitrogen KSS %Inh at 1 µM
ACVR1B (ALK4) = ACVR1B (ALK4) (Homo sapiens, UniProt P36896)
Description: (§1) The METi and RAFi were screened against kinase panels (SelectScreen, Invitrogen; University of Dundee, Division of Signal Transduction Therapy, UK; Upstate Biotechnology/Millipore, Billerica, MA). In these selectivity assays the concentration of ATP was set to the Km value of ATP for each kinase tested to allow for a relative potency comparison between the various kinases. The compounds were tested at 1 µM final concentration. […] Supplementary file pone.0039653.s002.pdf: Figure S2 Kinase Selectivity Screen of RAFi. (A) Kinase selectivity screen (KSS) performed at University of Dundee (Division of Signal Transduction Therapy). Values in % inhibition of phosphorylation given 1 µM of RAFi compared to control. (B) KSS performed at Invitrogen (Selectscreen Service) compared to control. Values in % inhibition of phosphorylation given 1 µM of RAFi. (C) Cell based dose response kinase inhibition of indicated kinases by RAFi. (PDF) Click here for additional data file.

DAPK3 (ZIPK) = DAPK3 (ZIPK) (Homo sapiens, UniProt O43293)
Description: as §1

AMPK A1/B1/G1 = target: T1, AMPK A1/B1/G1 (Homo sapiens, UniProt Q13131)
T1 construct: gene PRKAA1; A1/B1/G1
Description: as §1

FLT3 D835Y = FLT3 D835Y (Homo sapiens, UniProt P36888, D835Y)
Description: as §1

MST1R (RON) = MST1R (RON) (Homo sapiens, UniProt Q04912)
Description: as §1

RPS6KA1 (RSK1) = RPS6KA1 (RSK1) (Homo sapiens, UniProt Q15418)
Description: as §1

CDC42 BPB (MRCKB) = target: T2, CDC42 BPB (MRCKB) (Homo sapiens, UniProt Q9Y5S2)
T2 construct: gene CDC42BPB
T2 sequence (Q9Y5S2 whole entry): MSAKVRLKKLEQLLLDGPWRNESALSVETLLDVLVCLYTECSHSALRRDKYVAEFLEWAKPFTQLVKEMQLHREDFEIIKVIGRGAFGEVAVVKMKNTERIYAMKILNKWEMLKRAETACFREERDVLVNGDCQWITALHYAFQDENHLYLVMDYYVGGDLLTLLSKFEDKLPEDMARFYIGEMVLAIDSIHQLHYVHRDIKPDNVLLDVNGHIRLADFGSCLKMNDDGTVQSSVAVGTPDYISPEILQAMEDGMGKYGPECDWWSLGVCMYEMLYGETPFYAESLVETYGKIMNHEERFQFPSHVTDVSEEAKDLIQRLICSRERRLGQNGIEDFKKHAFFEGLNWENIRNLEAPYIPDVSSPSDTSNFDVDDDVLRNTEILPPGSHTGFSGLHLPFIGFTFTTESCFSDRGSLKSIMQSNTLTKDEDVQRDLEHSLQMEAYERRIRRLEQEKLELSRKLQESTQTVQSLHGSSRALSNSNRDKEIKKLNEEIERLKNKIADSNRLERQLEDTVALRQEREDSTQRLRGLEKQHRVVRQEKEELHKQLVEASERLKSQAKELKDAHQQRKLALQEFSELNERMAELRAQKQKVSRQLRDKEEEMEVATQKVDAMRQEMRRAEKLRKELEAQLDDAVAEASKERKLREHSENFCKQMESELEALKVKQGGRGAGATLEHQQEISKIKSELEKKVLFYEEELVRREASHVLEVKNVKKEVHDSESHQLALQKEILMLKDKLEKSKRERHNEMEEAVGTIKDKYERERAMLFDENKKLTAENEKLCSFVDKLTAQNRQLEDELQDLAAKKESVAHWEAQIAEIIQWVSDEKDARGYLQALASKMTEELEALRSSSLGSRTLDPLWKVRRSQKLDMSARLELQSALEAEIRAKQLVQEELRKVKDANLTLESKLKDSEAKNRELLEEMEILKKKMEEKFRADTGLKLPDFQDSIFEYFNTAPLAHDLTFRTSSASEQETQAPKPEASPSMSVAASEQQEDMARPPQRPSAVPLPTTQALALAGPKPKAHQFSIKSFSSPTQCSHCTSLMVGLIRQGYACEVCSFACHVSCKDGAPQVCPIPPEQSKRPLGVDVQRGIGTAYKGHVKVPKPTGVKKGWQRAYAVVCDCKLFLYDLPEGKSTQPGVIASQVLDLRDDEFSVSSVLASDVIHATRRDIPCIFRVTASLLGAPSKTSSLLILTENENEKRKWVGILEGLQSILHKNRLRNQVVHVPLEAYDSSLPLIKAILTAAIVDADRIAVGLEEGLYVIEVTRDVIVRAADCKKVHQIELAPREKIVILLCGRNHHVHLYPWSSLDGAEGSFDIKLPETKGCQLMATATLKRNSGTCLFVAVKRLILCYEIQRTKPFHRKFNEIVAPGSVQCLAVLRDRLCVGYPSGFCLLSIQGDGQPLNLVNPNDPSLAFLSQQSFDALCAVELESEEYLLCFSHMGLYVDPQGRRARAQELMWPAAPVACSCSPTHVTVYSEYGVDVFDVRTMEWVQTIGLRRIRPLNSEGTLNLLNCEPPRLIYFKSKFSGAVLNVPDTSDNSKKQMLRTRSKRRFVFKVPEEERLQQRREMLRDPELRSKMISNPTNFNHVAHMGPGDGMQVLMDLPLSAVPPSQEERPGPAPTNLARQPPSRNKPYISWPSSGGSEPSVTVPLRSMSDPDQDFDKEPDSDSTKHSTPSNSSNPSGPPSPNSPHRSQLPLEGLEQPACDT
Description: as §1

TBK1 = TBK1 (Homo sapiens, UniProt Q9UHD2)
Sequence of TBK1 (Q9UHD2 whole entry): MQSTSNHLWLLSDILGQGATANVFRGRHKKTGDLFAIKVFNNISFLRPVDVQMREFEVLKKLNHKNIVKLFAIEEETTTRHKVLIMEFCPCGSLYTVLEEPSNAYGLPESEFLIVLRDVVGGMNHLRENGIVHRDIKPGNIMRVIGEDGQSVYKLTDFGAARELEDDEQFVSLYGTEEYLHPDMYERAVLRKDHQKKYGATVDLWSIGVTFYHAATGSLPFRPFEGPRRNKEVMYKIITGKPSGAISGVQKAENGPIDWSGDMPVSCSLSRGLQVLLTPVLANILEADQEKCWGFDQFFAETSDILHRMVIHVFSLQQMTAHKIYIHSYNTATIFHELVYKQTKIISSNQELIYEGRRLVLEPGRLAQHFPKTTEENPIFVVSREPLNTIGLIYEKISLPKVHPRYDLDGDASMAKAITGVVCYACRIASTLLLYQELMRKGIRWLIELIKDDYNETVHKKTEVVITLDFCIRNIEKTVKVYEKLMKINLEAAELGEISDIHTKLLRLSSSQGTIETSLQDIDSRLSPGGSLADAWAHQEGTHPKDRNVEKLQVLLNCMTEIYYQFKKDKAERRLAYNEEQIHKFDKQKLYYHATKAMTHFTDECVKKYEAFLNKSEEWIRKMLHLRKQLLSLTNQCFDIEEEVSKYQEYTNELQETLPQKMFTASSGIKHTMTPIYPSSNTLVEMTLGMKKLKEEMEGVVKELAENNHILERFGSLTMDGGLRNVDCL
Description: as §1

RAF1 (cRAF) Y340D Y341D = RAF1 (cRAF) Y340D Y341D (Homo sapiens, UniProt P04049, Y340D/Y341D)
Description: as §1

HIPK4 = HIPK4 (Homo sapiens, UniProt Q8NE63)
Description: as §1

PRKCZ (PKC zeta) = PRKCZ (PKC zeta) (Homo sapiens, UniProt Q05513)
Description: as §1

MAP2K1 (MEK1) = MAP2K1 (MEK1) (Homo sapiens, UniProt Q02750)
Description: as §1

CSNK1G1 (CK1 gamma 1) = CSNK1G1 (CK1 gamma 1) (Homo sapiens, UniProt Q9HCP0)
Sequence of CSNK1G1 (CK1 gamma 1) (Q9HCP0 whole entry): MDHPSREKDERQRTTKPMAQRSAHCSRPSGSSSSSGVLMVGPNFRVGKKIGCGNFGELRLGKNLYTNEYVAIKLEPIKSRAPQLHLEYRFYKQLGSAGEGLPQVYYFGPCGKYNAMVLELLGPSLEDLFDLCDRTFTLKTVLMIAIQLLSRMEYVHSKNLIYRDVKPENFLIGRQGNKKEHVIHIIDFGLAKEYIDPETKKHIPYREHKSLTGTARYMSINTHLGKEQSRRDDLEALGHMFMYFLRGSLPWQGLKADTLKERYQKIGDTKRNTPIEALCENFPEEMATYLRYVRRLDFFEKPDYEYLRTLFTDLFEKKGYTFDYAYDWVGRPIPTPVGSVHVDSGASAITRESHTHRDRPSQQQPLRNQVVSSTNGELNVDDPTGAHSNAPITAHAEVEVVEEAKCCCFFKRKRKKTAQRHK
Description: as §1

MARK1 = MARK1 (Homo sapiens, UniProt Q9P0L2)
Description: as §1

PDGFRB (PDGFR beta) = PDGFRB (PDGFR beta) (Homo sapiens, UniProt P09619)
Description: as §1

LCK = LCK (Homo sapiens, UniProt P06239)
Description: as §1

ITK = ITK (Homo sapiens, UniProt Q08881)
Description: as §1

MAPK3 (ERK1) = MAPK3 (ERK1) (Homo sapiens, UniProt P27361)
Sequence of MAPK3 (ERK1) (P27361 whole entry): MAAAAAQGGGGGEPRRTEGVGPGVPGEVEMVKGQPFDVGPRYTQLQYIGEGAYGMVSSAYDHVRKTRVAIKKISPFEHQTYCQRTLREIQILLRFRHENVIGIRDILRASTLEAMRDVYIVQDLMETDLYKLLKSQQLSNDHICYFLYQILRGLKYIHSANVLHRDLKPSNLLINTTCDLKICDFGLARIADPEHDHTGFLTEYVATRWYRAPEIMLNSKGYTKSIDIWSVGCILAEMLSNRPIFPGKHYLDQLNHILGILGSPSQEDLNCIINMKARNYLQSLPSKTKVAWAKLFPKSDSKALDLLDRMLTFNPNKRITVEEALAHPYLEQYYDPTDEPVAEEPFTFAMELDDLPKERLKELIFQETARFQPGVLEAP
Description: as §1

MET M1250T = MET M1250T (Homo sapiens, UniProt P08581, M1250T)
Description: as §1

FES (FPS) = FES (FPS) (Homo sapiens, UniProt P07332)
Sequence of FES (FPS) (P07332 whole entry): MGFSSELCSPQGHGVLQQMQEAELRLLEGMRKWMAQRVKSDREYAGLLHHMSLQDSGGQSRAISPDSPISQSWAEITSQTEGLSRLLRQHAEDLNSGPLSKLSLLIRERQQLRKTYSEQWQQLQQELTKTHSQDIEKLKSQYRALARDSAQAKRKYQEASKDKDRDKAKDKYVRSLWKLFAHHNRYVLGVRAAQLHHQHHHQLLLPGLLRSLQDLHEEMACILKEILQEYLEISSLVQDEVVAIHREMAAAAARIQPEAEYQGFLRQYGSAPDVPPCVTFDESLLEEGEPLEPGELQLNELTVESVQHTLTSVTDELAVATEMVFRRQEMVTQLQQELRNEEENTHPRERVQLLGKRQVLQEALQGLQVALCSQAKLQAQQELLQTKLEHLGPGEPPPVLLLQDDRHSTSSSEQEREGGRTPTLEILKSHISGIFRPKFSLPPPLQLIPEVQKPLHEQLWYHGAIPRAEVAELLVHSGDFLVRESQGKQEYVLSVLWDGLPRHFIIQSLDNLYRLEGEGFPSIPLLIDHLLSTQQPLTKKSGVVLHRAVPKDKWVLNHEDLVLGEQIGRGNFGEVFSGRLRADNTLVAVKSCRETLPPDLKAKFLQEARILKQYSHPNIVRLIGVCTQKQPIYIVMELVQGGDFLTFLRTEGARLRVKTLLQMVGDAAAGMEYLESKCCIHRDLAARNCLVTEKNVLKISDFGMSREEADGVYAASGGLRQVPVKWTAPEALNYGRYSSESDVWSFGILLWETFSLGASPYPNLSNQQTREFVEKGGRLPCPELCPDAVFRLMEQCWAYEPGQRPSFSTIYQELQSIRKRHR
Description: as §1

AKT3 (PKB gamma) = AKT3 (PKB gamma) (Homo sapiens, UniProt Q9Y243)
Sequence of AKT3 (PKB gamma) (Q9Y243 whole entry): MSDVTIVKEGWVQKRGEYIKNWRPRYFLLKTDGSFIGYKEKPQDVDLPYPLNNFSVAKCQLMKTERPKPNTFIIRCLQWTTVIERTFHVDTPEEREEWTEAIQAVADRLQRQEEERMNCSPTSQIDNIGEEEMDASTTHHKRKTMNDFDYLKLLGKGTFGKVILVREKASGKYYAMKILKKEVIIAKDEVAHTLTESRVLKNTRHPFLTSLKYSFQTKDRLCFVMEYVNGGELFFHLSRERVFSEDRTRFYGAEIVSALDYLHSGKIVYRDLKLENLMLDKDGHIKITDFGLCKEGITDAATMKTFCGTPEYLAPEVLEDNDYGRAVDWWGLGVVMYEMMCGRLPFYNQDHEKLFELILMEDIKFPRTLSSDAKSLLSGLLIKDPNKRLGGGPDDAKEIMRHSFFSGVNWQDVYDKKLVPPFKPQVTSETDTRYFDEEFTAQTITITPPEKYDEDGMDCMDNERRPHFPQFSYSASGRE
Description: as §1

ABL1 T315I = ABL1 T315I (Homo sapiens, UniProt P00519, T315I)
Description: as §1

Sequence of ACVR1B (ALK4) (P36896 whole entry): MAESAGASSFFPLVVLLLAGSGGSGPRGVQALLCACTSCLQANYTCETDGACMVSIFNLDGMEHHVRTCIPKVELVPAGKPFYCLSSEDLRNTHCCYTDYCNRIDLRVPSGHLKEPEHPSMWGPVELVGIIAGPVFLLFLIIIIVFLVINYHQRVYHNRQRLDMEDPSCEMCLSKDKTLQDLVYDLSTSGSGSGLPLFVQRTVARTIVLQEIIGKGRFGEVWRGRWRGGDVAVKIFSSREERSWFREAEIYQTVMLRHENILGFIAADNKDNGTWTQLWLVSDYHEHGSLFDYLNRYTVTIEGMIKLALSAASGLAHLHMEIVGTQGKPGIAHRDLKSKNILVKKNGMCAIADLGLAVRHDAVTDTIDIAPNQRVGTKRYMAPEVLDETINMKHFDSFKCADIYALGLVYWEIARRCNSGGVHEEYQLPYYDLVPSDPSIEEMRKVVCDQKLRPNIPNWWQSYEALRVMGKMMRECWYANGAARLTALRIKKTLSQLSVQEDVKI

inhibition at 1 µM (ACVR1B (ALK4)): 7%
inhibition at 1 µM (DAPK3 (ZIPK)): 5%
inhibition at 1 µM (AMPK A1/B1/G1): 16%
inhibition at 1 µM (FLT3 D835Y): 57%
inhibition at 1 µM (MST1R (RON)): 2%
inhibition at 1 µM (RPS6KA1 (RSK1)): 6%
inhibition at 1 µM (CDC42 BPB (MRCKB)): 21%
inhibition at 1 µM (TBK1): -7%
inhibition at 1 µM (RAF1 (cRAF) Y340D Y341D): 95%
inhibition at 1 µM (HIPK4): 8%
inhibition at 1 µM (PRKCZ (PKC zeta)): -7%
inhibition at 1 µM (MAP2K1 (MEK1)): 24%
inhibition at 1 µM (CSNK1G1 (CK1 gamma 1)): 0%
inhibition at 1 µM (MARK1): 2%
inhibition at 1 µM (PDGFRB (PDGFR beta)): 2%
inhibition at 1 µM (LCK): 15%
inhibition at 1 µM (ITK): 0%
inhibition at 1 µM (MAPK3 (ERK1)): 28%
inhibition at 1 µM (MET M1250T): 7%
inhibition at 1 µM (FES (FPS)): -11%
inhibition at 1 µM (AKT3 (PKB gamma)): 7%
inhibition at 1 µM (ABL1 T315I): -21%
Compound: N#CCCNc1nccc(-c2cn(CC(F)F)nc2-c2cnc3[nH]ccc3c2)n1 [RAFi, PF-04880594]
